Holding throughout (type): in vivo
Assay [1] deals with Glutathione S-transferase, alpha 3 (Gsta3). The assay is described as follows: Microarray gene expression, mouse intestine: Gsta3. To be noted: diet 1 ppm Se, vs Se-deficient diets, negative = down. The source says: (§1) Animal Care. Male C57BL/6J mice were housed singly and started on the experimental diets described below immediately after weaning (21 days of age). The mice were maintained in the Shared Aging Rodent Facility at the William S. Middleton Memorial Veterans Administration Medical Center (Madison, Wis.). Temperature and humidity were maintained at constant levels. Room light was controlled to provide 12-hr cycles of light and dark.
(§2) Experimental diets were created by Harlan Teklad (Madison, Wis.). Selenium content of the diets was determined by Covance Inc. (Madison, Wis.). Five (5) animals were included in each of the following treatment groups: a diet deficient in selenium (SD); a diet supplemented with selenomethionine (SM, obtained from Sigma, St. Louis, Mo.) such that the final selenium content of the diet was one (1) part per million; a diet supplemented with sodium selenite (SS, Sigma) such that the final concentration of selenium in this diet was one (1) part per million; or a diet supplemented with the yeast selenium SEL-PLEX (SP, Alltech, Lexington, Ky.), such that the final concentration of selenium in this diet was one (1) part per million. SEL-PLEX. […]
(§3) Tissue sample preparation and microarray analysis. […] For intestinal expression studies, the intestine was flushed twice with saline solution and small intestine was measured and divided in three equal segments. […]

The subject of assay [2] is Glutathione S-transferase, mu3 (Gstm3). As to the kind of experiment: Microarray gene expression, mouse intestine: Gstm3. The note with it: diet 1 ppm Se, vs Se-deficient diets, negative = down.
Description: as §1, §2, §3

The next assay has as its system SelR (Selenoprotein X1). As to the kind of experiment: Microarray gene expression, mouse intestine: SelR. To be noted: diet 1 ppm Se, vs selenium deficient.
Description: as §1, §2, §3

The subject of assay [3] is Cu chaperone for SOD (CCS). As to the kind of experiment: Microarray gene expression, mouse intestine: CCS. To be noted: diet 1 ppm Se, vs selenium deficient.
Description: as §1, §2, §3

Assay [4] relates to Complement component 1, q subcomponent binding protein, C1qbp. As to the kind of experiment: Microarray gene expression, mouse cerebral cortex: C1qbp. The note with it: diet 1 ppm Se, vs selenium deficient, * p<0.01.
Description: as §1, §2, §3

In assay [5] the test system is Complement component 1, q subcomponent, beta polypeptide, C1qbp. The assay is described as follows: Microarray gene expression, mouse cerebral cortex: C1q beta polypeptide. The note with it: diet 1 ppm Se, vs selenium deficient, * p<0.01.
Description: as §1, §2, §3

For assay [6], the system named is Growth arrest and DNA-damage-inducible 45 gamma (Gadd45g). As to the kind of experiment: Microarray gene expression, mouse intestine: Gadd45g. To be noted: diet 1 ppm Se, vs selenium deficient, negative = down, listed as SS.
Description: as §1
Experimental diets were created by Harlan Teklad (Madison, Wis.). Selenium content of the diets was determined by Covance Inc. (Madison, Wis.). Five (5) animals were included in each of the following treatment groups: a diet deficient in selenium (SD); a diet supplemented with selenomethionine (SM, obtained from Sigma, St. Louis, Mo.) such that the final selenium content of the diet was one (1) part per million; a diet supplemented with sodium selenite (SS, Sigma) such that the final concentration of selenium in this diet was one (1) part per million; or a diet supplemented with the yeast selenium SEL-PLEX (SP, Alltech, Lexington, Ky.), such that the final concentration of selenium in this diet was one (1) part per million. SEL-PLEX. Mice were provided with water and their respective diet ad libitum for 100 days. Diets were stored at the dark at 4° C. and fresh diet was added to feeder twice weekly.
Tissue sample preparation and microarray analysis. Mice were killed at 100 days of age by cervical dislocation. For intestinal expression studies, the intestine was flushed twice with saline solution and small intestine was measured and divided in three equal segments. A 3-cm region of the middle segment of the small intestine corresponding to the jejunum (˜300 mg of tissue) was cut and rinsed again with physiological saline to completely remove contents, flash frozen in liquid nitrogen and stored at −80° C. For brain (e.g., cerebral cortex) studies, the cerebral cortex was separated from the surrounding brain tissue and was flash frozen in liquid nitrogen and stored at −80° C. […]

In assay [7] the test system is Amyloid beta (A4) precursor protein-binding, family B, member 1 (Apbb1 or Fe65). As to the kind of experiment: Microarray gene expression, mouse cerebral cortex: Apbb1/Fe65. The note with it: diet 1 ppm Se, vs Se-deficient animals, * P < 0.01.
Description: as §1, §2, §3

A further assay concerns Gst zeta 1 (Gstz1). As to the kind of experiment: Microarray gene expression, mouse cerebral cortex: Gstz1. The note with it: diet 1 ppm Se, vs Se-deficient animals, * significant.
Description: as §1, §2, §3

Assay [8] has as its system Glutathione S-transferase, mu2 (Gstm2). The assay is described as follows: Microarray gene expression, mouse intestine: Gstm2. The note with it: diet 1 ppm Se, vs Se-deficient diets, negative = down.
Description: as §1, §2, §3

Another assay concerns SOD1. The assay is described as follows: Microarray gene expression, mouse intestine: SOD1. The note with it: diet 1 ppm Se, vs selenium deficient.
Description: as §1, §2, §3

The subject of another assay is Gst mu 7 (Gstm7). As to the kind of experiment: Microarray gene expression, mouse cerebral cortex: Gstm7. To be noted: diet 1 ppm Se, vs Se-deficient animals, * significant.
Description: as §1, §2, §3

Another assay concerns Cathepsin Z. As to the kind of experiment: Microarray gene expression, mouse cerebral cortex: Cathepsin Z. The note with it: diet 1 ppm Se, vs Se-deficient mice, * significant.
Description: as §1, §2, §3

Another assay deals with Cathepsin O. The assay is described as follows: Microarray gene expression, mouse cerebral cortex: Cathepsin O. To be noted: diet 1 ppm Se, vs Se-deficient mice, * significant.
Description: as §1, §2, §3

As for `O=[Se](O)O` [Sod-sel, sodium selenite], the “FC (fold change) expression of Gsta3” value in assay [1] is on record as −2.3 fold. For the same molecule, the “FC (fold change) expression of Gstm3” value in assay [2] is listed as −2.7 fold. Besides, in the assay with SelR (Selenoprotein X1), the “expression of SelR, fold upregulated” value amounted to 1.3 fold. Moreover, in assay [3], the “enhancement in expression of the Cu chaperone for SOD (CCS), fold” value was found to be 1.28 fold. The “FC (fold change) expression of C1qbp” value in [4] was found to be 1.11 fold. Besides, in assay [5], the “FC (fold change) expression of complement component 1, q subcomponent, beta polypeptide” value is on record as −1.35 fold. Besides, the “FC (fold change) expression of Gadd45g” value in assay [6] is −2.0 fold. Also, the “FC (fold change) expression of Apbb1 (Fe65)” value in assay [7] is −1.32* fold. In the assay with Gst zeta 1 (Gstz1), the “FC (fold change) expression of Gstz1” value was −1.3 fold. In [8], the “FC (fold change) expression of Gstm2” value is −2.1 fold. The “enhanced expression of SOD1, fold” value in the assay on SOD1 was 1.92 fold. In addition, the “FC (fold change) expression of Gstm7” value in the assay on Gst mu 7 (Gstm7) is given as −1.25* fold. Also, the “FC (fold change) expression of Cathepsin Z” value in the assay with Cathepsin Z is −1.30* fold. In the assay on Cathepsin O, the “FC (fold change) expression of Cathepsin O” value is −1.18 fold.
